Results: paper PMC3702004, “Comparison of Intake and Systemic Relative Effect Potencies of Dioxin-like Compounds in Female Mice after a Single Oral Dose” (Environmental Health Perspectives, 2013)
Read-outs that look alike come from different tables or passages of the source.

Experiments:
Cyp1b1 mRNA in PBLs = assay: Cyp1b1 gene expression in peripheral blood lymphocytes; assay type: in vivo, female C57BL/6 mice; conditions: for BMR20TCDD PBLs Cyp1b1 mRNA: 3 days after single oral dose; for REP PBLs Cyp1b1 mRNA: relative to TCDD; for Effect on Cyp1b1 mRNA in PBLs: single oral dose, day 3
Method: (§1) Animals. Eight-week-old female C57BL/6 mice (Harlan laboratories, Venray, the Netherlands) were randomly assigned to treatment groups (six animals per group) and allowed to acclimate for 1.5 weeks. The animals were housed in groups in standard cages and conditions (23 ± 2°C, 50–60% relative humidity, 12-hr dark/light cycle) with free access to food and water. Mice received a single dose of test compound by oral gavage at a dosing volume of 10 mL/kg body weight (BW). Mice treated with corn oil vehicle (10 mL/kg BW) served as controls. For each congener, five different doses were administered, ranging from 0.5–100 μg/kg BW (TCDD) to 5,000–500,000 µg/kg BW (PCB-153). Detailed information on doses is provided in Supplemental Material, Table S1 (http://dx.doi.org/10.1289/ehp.1206336). On day 3 after dosing, animals were euthanized by CO2/O2 asphyxiation, and blood was immediately collected from the abdominal aorta. The liver, thymus, spleen, and adipose tissue were removed, weighed (liver, thymus, and spleen), snap frozen, and stored at –80°C. All animal treatments were performed with permission of the Animal Ethical Committee (DEC Utrecht) and performed according to the [Law on Animal Experiments (1977)]. Animals were treated humanely and with regard for alleviation of suffering.
(§2) Plasma and PBL isolation. Blood from two mice was pooled (total volume of approximately 1.4 mL); plasma and PBLs were then isolated using Ficoll Paque gradient (GE Healthcare Europe, Diegem, Belgium). Plasma samples were stored at –80°C until compound analysis. Isolated lymphocytes were lysed with RLT buffer (QIAGEN, Venlo, the Netherlands) as described in the QIAGEN RNAeasy kit protocol and stored at –80°C until use.
RNA isolation and quantitative real-time polymerase chain reaction (PCR). Total RNA was isolated from liver and PBLs using a QIAGEN RNeasy kit (QIAGEN). Purity and concentration of the isolated RNA was determined by measuring the absorbance ratio at 260/280 nm and 230/260 nm with a Nanodrop 2000 spectrophotometer (Thermo Scientific, Asheville, NC, USA). RNA was reverse transcribed to complementary DNA (cDNA) using the iScript cDNA synthesis Kit (Bio-Rad, Veenendaal, the Netherlands). Quantitative real-time PCR analyses were performed using the iQ Real-Time PCR Detection System with SYBR green (Bio-Rad). Amplification reactions were set up with […] containing 12.5 μL iQ SYBR Green Supermix (Bio-rad), 0.5 μL distilled H2O, 1 μL (10 μM) forward primer, 1 μL (10 μM) reverse primer, and 10 μL first strand cDNA (10X diluted). Primer sequences were as follows: Cyp1a1: forward-5´-GGTTAACCATGACCGGGAACT-3´ and reverse-5´-TGCCCAAACCAAAGAGAGTGA-3´ ([Schulz et al. 2012]); Cyp1a2: forward-5´-ACATTCCCAAGGAGCGCTGTATCT-3´ and reverse-5´-GTCGATGGCCGAGTTGTTATTGGT-3´ ([Flaveny et al. 2010]); Cyp1b1: forward-5´-GTGGCTGCTCATCCTCTTTACC-3´ and reverse-5´-CCCACAACCTGGTCCAACTC-3´ ([Berge et al. 2004]); β-actin: forward-5´-ATGCTCCCCGGGCTGTAT-3´ and reverse-5´-CATAGGAGTCCTTCTGACCCATTC-3´ ([Schulz et al. 2012]). All primers were run through the National Center for Biotechnology Information Primer-BLAST database (http://www.ncbi.nlm.nih.gov/tools/primer-blast/) to confirm specificity and validate for optimal annealing temperature (60°C for all primers) and efficiency. The efficiency of all primer pairs was 98–102% (tested at 60°C). The following program was used for denaturation and amplification of cDNA: 3 min at 95°C, followed by 40 cycles of 15 sec at 95°C and 45 sec at 60°C. Gene expression for each sample was expressed as threshold cycle (Ct), normalized to the reference gene β-actin (ΔCt). We calculated fold induction relative to the control group.
Data analysis. We obtained concentration–response curves using a sigmoidal dose–response nonlinear regression curve fit with variable slope (GraphPad Prism 6.01; GraphPad Software Inc., San Diego, CA, USA): […]

[1] = Compound analysis: liver, adipose and plasma concentrations 3 days after a single oral dose; assay type: in vivo, female C57BL/6 mice; conditions: for liver:adipose ratio (hepatic sequestration criterion 0.3) / concentration at 3 days / Adipose % dose / g tissue / Adipose concentration / Liver % dose / g tissue / Liver concentration / Plasma % dose / g tissue / Plasma concentration: 3 days after single oral dose; for liver:adipose ratio (hepatic sequestration criterion 0.3): Table 1 doses; for Liver:adipose ratio: based on ng/g tissue, day 3; for concentration at 3 days: female, C57BL/6, mouse, in vivo, po
Method: as §1
Compound analysis. Adipose and liver tissues samples were homogenized in Na2SO4, followed by extraction and clean-up in one step, and then eluted with 200 mL 1:1 hexane:dichloromethane on an open column packed with 40% wt/wt H2SO4-impregnated silica and KOH-silica. Blood plasma samples were extracted on an open column using Chem-Elut (Agilent Technologies, Santa Clara, CA, USA) and then NaCl eluted with 75 mL 3:2 hexane:2-propanol. Clean-up was performed using a miniaturized silica column (as described above), and samples were eluted using 30 mL hexane. Because the samples typically contained high levels of the analytes, only a small fraction was evaporated and analyzed. Prior to evaporation, we spiked a fraction of the samples with ^13C-labeled standards. We checked potential loss of analytes during extraction and clean-up by reextracting the samples using the identical protocol used for the samples. […] Tetradecane was added prior to evaporation. Sample analysis followed the U.S. Environmental Protection Agency Method 1613 ([U.S. Environmental Protection Agency 1994]) using single ion monitoring mode on an Agilent 6809N gas chromatograph (Agilent Technologies) coupled with a Micromass Ultima Autospec Ultra high-resolution mass spectrometer (HRMS; Waters Corp., Milford, MA, USA). Compounds were separated on a 60 m × 0.25 mm DB5-MS column ([…]; J&W Scientific, Folsom, CA, USA). The HRMS was operated with electron impact ionization with electron energy of 35 eV and an ion source temperature of 250°C. To reduce the number of analyses, samples were pooled before clean-up. […] This method was used because full congener–specific separation could be achieved on the high-resolution GC–HRMS. For lipid determination, samples were evaporated to dryness after the extraction step, and the amount of lipids was determined gravimetrically. Concentrations were calculated based on lipid weight and wet weight. The analysis of samples for the PCB-118 5,000 μg/kg BW dose failed during the procedure; thus analysis for this group could not be completed.
as §2

[2] = dose metric Adm dose (µg/kg BW)
[3] = dose metric Syst plasma (ng/g lipid)
[4] = 0.5 µg/kg bw, oral dose 0.5 µg/kg bw, read-out: Adipose concentration
[5] = 0.5 µg/kg bw, oral dose 0.5 µg/kg bw, read-out: Liver concentration
[6] = 2.5 µg/kg bw, oral dose 2.5 µg/kg bw, read-out: Adipose concentration
[7] = 2.5 µg/kg bw, oral dose 2.5 µg/kg bw, read-out: Liver concentration
[8] = 10 µg/kg bw, oral dose 10 µg/kg bw, read-out: Adipose concentration
[9] = 10 µg/kg bw, oral dose 10 µg/kg bw, read-out: Liver concentration
[10] = 10 µg/kg bw, oral dose 10 µg/kg bw, read-out: Plasma concentration
[11] = 25 µg/kg bw, oral dose 25 µg/kg bw, read-out: Plasma concentration
[12] = 100 µg/kg bw, oral dose 100 µg/kg bw, read-out: Plasma concentration

SMILES | BMR20TCDD PBLs Cyp1b1 mRNA (Cyp1b1 mRNA in PBLs; dose metric Adm dose) [µg/kg BW] | BMR20TCDD PBLs Cyp1b1 mRNA (Cyp1b1 mRNA in PBLs; dose metric Syst plasma) [ng/g lipid] | REP PBLs Cyp1b1 mRNA (Cyp1b1 mRNA in PBLs; [2]) | REP PBLs Cyp1b1 mRNA (Cyp1b1 mRNA in PBLs; [3]) | Effect on Cyp1b1 mRNA in PBLs (Cyp1b1 mRNA in PBLs) | liver:adipose ratio (hepatic sequestration criterion 0.3) [1] | Liver:adipose ratio ([1]; dose 0.5 μg/kg BW) | Liver:adipose ratio ([1]; dose 2.5 μg/kg BW) | Liver:adipose ratio ([1]; dose 10 μg/kg BW) | concentration at 3 days [1, 4] [ng/g] | concentration at 3 days [1, 5] [ng/g] | concentration at 3 days [1, 6] [ng/g] | concentration at 3 days [1, 7] [ng/g] | concentration at 3 days [1, 8] [ng/g] | concentration at 3 days [1, 9] [ng/g] | concentration at 3 days [1, 10] [ng/g] | concentration at 3 days [1, 11] [ng/g] | concentration at 3 days [1, 12] [ng/g] | Adipose % dose / g tissue ([1]; oral dose 0.5 µg/kg bw) [% dose / g tissue] | Adipose concentration ([1]; oral dose 0.5 µg/kg bw) [ng/g lipid] | further results
Clc1cc2c(cc1Cl)Oc1c(cc(Cl)c(Cl)c1Cl)O2 [PeCDD, 1,2,3,7,8-pentachlorodibenzodioxin] | 51.8 | 63.8 | 0.4 | 0.8 | dose-dependently induced | > 0.3 | 4.4±0.9 | 7.0±1.1 | 6.7±1.4 | 0.9 ± 0.2 | 4 ± 0.7 | 3.8 ± 0.7 | 27 ± 6 | 16 ± 5 | 103 ± 23 | 0.032 | 0.052 | 0.298 | 9.3 | 1.1 ± 0.2 | Liver % dose / g tissue ([1]; oral dose 0.5 µg/kg bw): 40 % dose / g tissue; Liver concentration ([1]; oral dose 0.5 µg/kg bw): 85 ± 14 ng/g lipid; Plasma % dose / g tissue ([1]; oral dose 0.5 µg/kg bw): 0.037 % dose / g tissue; Adipose % dose / g tissue ([1]; oral dose 2.5 µg/kg bw): 7.7 % dose / g tissue; Adipose concentration ([1]; oral dose 2.5 µg/kg bw): 4.3 ± 0.8 ng/g lipid; Liver % dose / g tissue ([1]; oral dose 2.5 µg/kg bw): 54 % dose / g tissue; Liver concentration ([1]; oral dose 2.5 µg/kg bw): 446 ± 96 ng/g lipid; Plasma % dose / g tissue ([1]; oral dose 2.5 µg/kg bw): 0.024 % dose / g tissue; Adipose % dose / g tissue ([1]; oral dose 10 µg/kg bw): 8.0 % dose / g tissue; Adipose concentration ([1]; oral dose 10 µg/kg bw): 19 ± 6 ng/g lipid; Liver % dose / g tissue ([1]; oral dose 10 µg/kg bw): 51 % dose / g tissue; Liver concentration ([1]; oral dose 10 µg/kg bw): 1669 ± 378 ng/g lipid; Plasma % dose / g tissue ([1]; oral dose 10 µg/kg bw): 0.016 % dose / g tissue; Plasma concentration ([1]; oral dose 10 µg/kg bw): 19 ± 7 ng/g lipid; Plasma % dose / g tissue ([1]; oral dose 25 µg/kg bw): 0.010 % dose / g tissue; Plasma concentration ([1]; oral dose 25 µg/kg bw): 30 ± 2 ng/g lipid; Plasma % dose / g tissue ([1]; oral dose 100 µg/kg bw): 0.015 % dose / g tissue; Plasma concentration ([1]; oral dose 100 µg/kg bw): 157 ± 21 ng/g lipid
Clc1cc2c(cc1Cl)Oc1cc(Cl)c(Cl)cc1O2 [TCDD, 2,3,7,8-tetrachlorodibenzodioxin, reference compound] | 20.9 | 53.5 | 1 | 1 | dose-dependently induced | > 0.3 | 1.8±0.2 | 2.9±0.5 | 4.2±0.7 | 1.8 ± 0.4 | 3.3 ± 0.6 | 6.9 ± 1.5 | 20 ± 6 | 21 ± 3 | 85 ± 13 | 0.053 | 0.108 | 0.432 | 18 | 2.1 ± 0.5 | Liver % dose / g tissue ([1]; oral dose 0.5 µg/kg bw): 33 % dose / g tissue; Liver concentration ([1]; oral dose 0.5 µg/kg bw): 62 ± 12 ng/g lipid; Plasma % dose / g tissue ([1]; oral dose 0.5 µg/kg bw): 0.040 % dose / g tissue; Adipose % dose / g tissue ([1]; oral dose 2.5 µg/kg bw): 14 % dose / g tissue; Adipose concentration ([1]; oral dose 2.5 µg/kg bw): 7.6 ± 1.7 ng/g lipid; Liver % dose / g tissue ([1]; oral dose 2.5 µg/kg bw): 40 % dose / g tissue; Liver concentration ([1]; oral dose 2.5 µg/kg bw): 277 ± 83 ng/g lipid; Plasma % dose / g tissue ([1]; oral dose 2.5 µg/kg bw): 0.027 % dose / g tissue; Adipose % dose / g tissue ([1]; oral dose 10 µg/kg bw): 10 % dose / g tissue; Adipose concentration ([1]; oral dose 10 µg/kg bw): 24 ± 4 ng/g lipid; Liver % dose / g tissue ([1]; oral dose 10 µg/kg bw): 43 % dose / g tissue; Liver concentration ([1]; oral dose 10 µg/kg bw): 1152 ± 176 ng/g lipid; Plasma % dose / g tissue ([1]; oral dose 10 µg/kg bw): 0.027 % dose / g tissue; Plasma concentration ([1]; oral dose 10 µg/kg bw): 35 ± 6 ng/g lipid; Plasma % dose / g tissue ([1]; oral dose 25 µg/kg bw): 0.022 % dose / g tissue; Plasma concentration ([1]; oral dose 25 µg/kg bw): 60 ± 3 ng/g lipid; Plasma % dose / g tissue ([1]; oral dose 100 µg/kg bw): 0.022 % dose / g tissue; Plasma concentration ([1]; oral dose 100 µg/kg bw): 240 ± 30 ng/g lipid
